Columns and labels:
Type in all cases: cell-based
DOHH-2 cells = experiment: ATPLite growth inhibition assay, single agent and combination (Loewe synergy); conditions: single agent
Protocol: (§1) The activity of compound I was examined in combination with PCI-32765 (ibrutinib), ABT-199 (venetoclax) and EPZ-6438 (Tazemetostat) across a panel of 8 DLBCL cell lines indicated below (7 GCB subtype cell lines and 1 ABC subtype cell line).
(§2) The effect of test compounds and combinations on growth inhibition as a measure of cell viability was determined in an ATPLite assay. The endpoint readout of the assay was based upon quantitation of ATP as an indicator of viable cells.
(§3) Cells were thawed from a liquid nitrogen preserved state. Once cells were expanded and divided at their expected doubling times, screening begins. Cells were seeded in growth media in black 384-well tissue culture treated plates at 500 cells per well (except where noted in Analyzer). Cells were equilibrated in assay plates via centrifugation and placed in incubators attached to the Dosing Modules at 37° C. for 24 hours before treatment. […] These Tzero (T0) plates were read using ultra-sensitive luminescence on Envision Plate Readers. Treated assay plates were incubated with compound for 72 hours. All data points were collected via automated processes; quality controlled; and analyzed using Horizon Discovery proprietary software. Assay plates were accepted if they pass the following quality control standards: relative luciferase values were consistent throughout the entire experiment, Z-factor scores were greater than 0.6, untreated/vehicle controls behaved consistently on the plate.
(§4) Growth Inhibition (GI) was used as a measure of cell viability. The cell viability of vehicle was measured at the time of dosing (T0) and after seventy two hours (T72). A GI reading of 0% represented no growth inhibition—cells treated with compound and T72 or T120 vehicle signals were matched. A GI 100% represented complete growth inhibition—cells treated by compound and To vehicle signals were matched. […] A GI 200% represents complete death of all cells in the culture well. Compounds reaching an activity plateau of GI 200% were considered cytotoxic. GI was calculated by applying the following test and equation: […]
(§5) where T is the signal measure for a test article, V is the vehicle-treated control measure, and V0 is the vehicle control measure at time zero. This formula is derived from the Growth Inhibition calculation used in the National Cancer Institute's[sic] NCl[sic]−60 high throughput screen.
(§6) Loewe Additivity model was used for measuring the effects of drug combinations. The Loewe additivity model is dose-based and applies only to the activity levels achieved by the single agents. Loewe Volume was used to assess the overall magnitude of the combination interaction in excess of the Loewe additivity model. Loewe Volume is particularly useful when distinguishing synergistic increases in a phenotypic activity (positive Loewe Volume) versus synergistic antagonisms (negative Loewe Volume). When antagonisms are observed, the Loewe Volume should be assessed to examine if there is any correlation between antagonism and a particular drug target-activity or cellular genotype. This model defines additivity as a non-synergistic combination interaction where the combination dose matrix surface should be indistinguishable from either drug crossed with itself. The calculation for additivity is:
(§7) To measure combination effects in excess of Loewe additivity, a scalar measure to characterize the strength of synergistic interaction was devised and termed the Synergy Score. The Synergy Score was calculated as:
(§8) Synergy Score=log fX log fYΣ max(0,Idata)(Idata−ILoewe)
(§9) The fractional inhibition for each component agent and combination point in the matrix was calculated relative to the median of all vehicle-treated control wells. The Synergy Score equation integrates the experimentally-observed activity volume at each point in the matrix in excess of a model surface numerically derived from the activity of the component agents using the Loewe model for additivity. […]

NU-DHL-1 cells = experiment: as above; conditions: single agent
Protocol: as §1, §2, §3, §4, §5, §6, §7, §8, §9

OCI-Ly19 cells = experiment: as above; conditions: single agent
Protocol: as §1, §2, §3, §4, §5, §6, §7, §8, §9

OCI-Ly3 cells = experiment: as above; conditions: single agent
Protocol: as §1, §2, §3, §4, §5, §6, §7, §8, §9

Pfeiffer cells = experiment: as above; conditions: single agent
Protocol: as §1, §2, §3, §4, §5, §6, §7, §8, §9

SU-DHL-10 cells = experiment: as above; conditions: single agent; printed SU-DIAL-10
Protocol: as §1, §2, §3, §4, §5, §6, §7, §8, §9

[1] = system: panel of 8 DLBCL cell lines; experiment: ATPLite growth inhibition assay across the cell line panel; conditions: single agent, FIG. 9
Protocol: as §1, §2
Cells were thawed from a liquid nitrogen preserved state. Once cells were expanded and divided at their expected doubling times, screening begins. Cells were seeded in growth media in black 384-well tissue culture treated plates at 500 cells per well (except where noted in Analyzer). […] These Tzero (T0) plates were read using ultra-sensitive luminescence on Envision Plate Readers. […] All data points were collected via automated processes; quality controlled; and analyzed using Horizon Discovery proprietary software. […]
Growth Inhibition (GI) was used as a measure of cell viability. The cell viability of vehicle was measured at the time of dosing (T0) and after seventy two hours (T72). A GI reading of 0% represented no growth inhibition—cells treated with compound and T72 or T120 vehicle signals were matched. […] GI was calculated by applying the following test and equation: […]

`CN1CCC(c2ccccc2CC(C)(C)Nc2nc(N3CCOCC3)nc(-n3c(C(F)F)nc4ccccc43)n2)CC1` [Compound I, 4-(2-(difluoromethyl)-1H-benzo[d]imidazol-1-yl)-N-(2-methyl-1-(2-(1-methylpiperidin-4-yl)phenyl)propan-2-yl)-6-morpholino-1,3,5-triazin-2-amine] was tested, and the “kind of growth inhibition effect (FIG. 10)” value (DOHH-2 cells) was “cytotoxic effects”, the “kind of growth inhibition effect (FIG. 10)” value (NU-DHL-1 cells) was “sub-cytostatic effects” and the “kind of growth inhibition effect (FIG. 10)” value (OCI-Ly19 cells) was “cytotoxic effects”. For the same compound, the “kind of growth inhibition effect (FIG. 10)” value (OCI-Ly3 cells) was “cytotoxic effects”, the “kind of growth inhibition effect (FIG. 10)” value (Pfeiffer cells) was “sub-cytostatic effects” and the “kind of growth inhibition effect (FIG. 10)” value (SU-DHL-10 cells) was “sub-cytostatic effects”. It also gave a growth inhibition levels ([1]; all cell lines) of over 50% and a GI50 ([1]; median across cell line panel) of 1.73 µM.

From US20190201409A1, “COMBINATION THERAPY” (MEI Pharma, Inc., priority 2016, published 2019)
